How the values were obtained:
[1] = system: Hedgehog signaling pathway; assay: Luciferase activity assay in Shh-LIGHT2 cells (Gli1-controlled Firefly / constitutive Renilla); format: cell-based; settings: for Firefly/Renilla luciferase expression (Hedgehog activation): absence of SAG, 24 hours (FIG. 11A)
Procedure: Following lysis, luminescence was measured using the Dual Luciferase assay kit (Promega) followed by Firefly/Renilla luciferase ratio calculation for each treatment. Shown is average Firefly/Renilla luciferase activity ±SD of 3 independent experiments. *p<0.04. […] RNA was extracted from brains of P18 and P21 Mut and WT mice. cDNA was prepared by reverse transcription and subjected to qPCR using primers specific to Gli1 and GAPDH (SEQ ID NOs: 1-2 and 3-4, respectively). Relative quantity (RQ) was calculated by the ΔΔCt method. * p<0.02 [vs control (FIG. 11A) or vs SAG treated cells (FIG. 11B)].
Shh-LIGHT2 cells were seeded at a density of 10,000 cells per well in a 96-wells plate in growing medium. 24 hours post-plating the cells were incubated for additional 24 hours with the tested compounds in low serum media (0.5%) without G418 and Zeocin. Following lysis, Firefly and Renilla luminescence was measured using the Dual Luciferase assay kit (Promega) and a Veritas microplate luminometer (Turner Biosystems).
To test if p8C10 (H5), p8G7 (H9) and p9E6 (H15) compounds that were identified in the screen indeed affect Hedgehog signaling, SHH-lightII cells which stably express an inducible Firefly-Luciferase reporter gene under the control of Gli1 (a read-out of Hedgehog activation) and constitutive Renilla-Luciferase for normalization purposes (Taipale et al. 2000) were used. […] Therefore, p9E6 was identified as an agonist. SHH activation is required for the first steps of oligodendrocyte differentiation, while a subsequent decrease in Hedgehog activity is needed for complete differentiation and myelin production (Bouslama-Oueghlani et al. 2012) and re-myelination (Samanta et al. 2015).

[2] = system: Mut MEFs; assay: JC1 staining of intact and damaged mitochondria (mitochondrial membrane potential); format: cell-based, mouse; settings: Mut MEFs, 10 μM, 24 hours (FIG. 14C)
Procedure: Mut MEFs were treated or not for 6 hours with the indicated concentrations of p8G5 (blue), pre084 (purple), or NE-100 (yellow), washed and stained with Hoechst and JC1 for 30 minutes followed by image acquisition using In-Cell-Analyzer-2000. Shown is the % of red/green JC1 integrated intensity per cell relative to that in untreated WT cells of 2-4 independent experiments.
Following, the cells were washed, stained with Hoechst and JC-1 fluorescent dyes for 30 minutes, and subjected to image acquisition using In-Cell-Analyzer-2000. Shown is cellular content of damaged mitochondria (JC1 green channel, red bars), intact mitochondria (JC1 red channel, green bars) and damaged to intact mitochondria ratio (blue bars). Values of control (vehicle treated) cells was set to 100%.
Mut MEFs were treated with the indicated compounds at 10 μM for 24 hours followed by staining with fluorogenic dyes and image-based single-cell analysis. Shown is average effect on ROS level from at least 3-independent experiments ±SEM. […] Mut MEFs were incubated or not for 24 hours with 10 μM of the indicated compound, washed and stained with Crystal Violet. […] Mut MEFs were incubated or not for 24 hours with 10 μM of the indicated compound, washed and stained with JC1 and Hoechst followed by image-based single-cell analysis. Values of untreated cells were set as 100%. Shown is average of at least 3 independent experiments for each parameter compared to its matching control ±SEM. * p<0.05. Putative targets are indicated.
Mut MEFs were incubated or not for 24 hours with 10 μM of the indicated compounds, washed and stained with Hoechst and JC1 followed by image-based single-cell analysis. […] Mut MEFs were incubated or not with the indicated concentrations of the indicated compounds for 2 hours followed by addition of 50 ng/ml Tunicamycin (Tun) for additional 22 hours, stained with Crystal Violet followed by measurement of absorbance at 570 nm.
MEFs were seeded on 1% gelatin-coated 96-wells plate at a density of 5000 cells per well. 24 hours post-plating the cells were incubated with the tested compounds for additional 24 hours. Several DMSO-treated cells (control) were included in each plate at different locations. Following, the cells were stained by addition of fluorogenic dyes for further 30 minutes incubation at 37° C. […] CellROX was used together with Hoechst and CFSE; JC1 was used together with Hoechst. Cells were washed with Hank's balanced salt solution (HBSS) which was used for images acquisition using IN Cell Analyzer 2000 (GE Healthcare, Pitsburgh, Pa., USA). IN Cell Developer Toolbox 1.9.1 software (GE Healthcare) was used for analysis which included cells segmentation using Hoechst and/or CFSE signals. For analysis of JC1 staining, integrated intensity of green and red emissions were used for detection of damaged and intact mitochondria, respectively.

[3] = system: Mut astrocytes; assay: Cell survival assay, Crystal violet staining, Mut astrocytes; format: cell-based, mouse; settings: 24 hours, untreated cells set to 100%
Procedure: (§1) Cells were seeded on 96-wells plate at a density of 5000 cells per well. Astrocytes were seeded following coating with 0.001% PDL.

[4] = system: Mut MEFs; assay: mtDNA quantification (qPCR of mitochondrial 12S rRNA and nuclear 18S rRNA genes), MEFs; format: cell-based, mouse; settings: 0.1 μM, 1 μM or 10 μM, 6 hours (FIG. 2)
Procedure: DNA extracted from WT and Mut MEFs that were treated or not for 6 hours with 0.1 μM, 1 μM or 10 μM of p8G5 (blue), Pre084 (known SIG-1R agonist, purple), pridopidine (known SIG-1R agonists, green) or NE-100 (known SIG-1R antagonist, yellow) was subjected to qPCR analysis of mitochondrial 12S rRNA and nuclear 18S rRNA genes.

[5] = system: WT astrocytes; assay: Cell survival assay, Crystal violet staining, WT astrocytes; format: cell-based, mouse; settings: 24 hours, untreated cells set to 100%
Procedure: as §1

[6] = system: Mut MEFs; assay: TMRE staining, flow cytometry; format: cell-based, mouse; settings: all concentrations, 6 hours (FIG. 5A)
Procedure: Mut MEFs were treated or untreated with the indicated concentrations of the indicated Sig-1R binders for 6 hours, stained by TMRE for 30 minutes and analyzed by flow cytometry. Shown are flow cytometry histograms and bar graphs representing % mean TMRE fluorescence intensity relative to non-treated WT cells of a representative experiment.
MEFs were seeded at a density of 4×10^4 cells per well in a 24-wells plate. 24 hours post-plating the cells were incubated with the tested compounds for additional 6 hours followed by staining with 200 nM Tetra-Methyl-Rhodamine-Ethyl esterperchlorate (TMRE) (Abcam) for 30 minutes at 37° C. Cells were removed by trypsinyzation, washed and resuspended in PBS. 5-10×10^3 cells were analyzed by Stratedigm S1000EXi cell sorter and FlowJo software (FLOWJO, LLC, Ashland, Oreg., USA).

[7] = system: Mut MEFs; assay: Oxygen consumption (Seahorse XF Cell Mito Stress Test), MEFs; format: cell-based, mouse; settings: 6 hours, normalized to biomass (FIGS. 7A-B)
Procedure: Mut MEFs were treated or not for 6 hours with the indicated concentrations of the indicated Sig-1R binders. Oxygen consumption was measured in a XF96 Extracellular Flux Analyzer using the Seahorse XF Cell Mito Stress Test Kit. The Basal respiration (FIG. 7A) and ATP-linked respiration (FIG. 7B) data were normalized to biomass as determined by Crystal Violet staining.
Mut MEFs were treated or not for 6 hours with the indicated concentrations of the indicated Sig-1R binders. Oxygen consumption was measured in a XF96 Extracellular Flux Analyzer using the Seahorse XF Cell Mito Stress Test Kit. The Basal respiration (FIG. 8A), ATP-linked respiration (FIG. 8B) and maximal respiration (FIG. 8C) data was normalized to mtDNA content as detailed in FIG. 2.
The data were normalized to cell number, obtained by Crystal Violet staining, or to mtDNA content.

[8] = system: Mut MEFs; assay: Cell survival assay, Crystal violet staining, Mut MEFs; format: cell-based, mouse; settings: 24 hours, untreated cells set to 100%
Procedure: as §1

C=CCn1c(C=Cc2ccccc2)nc2ccccc21 [Hit H15, 1-allyl-2-(2-phenylvinyl)-1H-benzimidazole]
Firefly/Renilla luciferase expression (Hedgehog activation) [1]: able to activate the Hedgehog signaling pathway
effect on mitochondrial health (JC1, intact and damaged mitochondria) [2]: significant beneficial effect on mitochondrial health

CCCN(CCC)CCc1ccc(OC)c(OCCc2ccccc2)c1 [NE100]
Survival (%) ± SEM Mut astrocytes ([3]; 1 μM): 94 ± 4.7%
Survival (%) ± SEM Mut astrocytes ([3]; 10 μM): 82 ± 4.3%
Survival (%) ± SEM Mut astrocytes ([3]; 30 μM): 65 ± 2.2%
mitochondrial content in Mut MEFs [4]: increased mitochondrial content in a dose dependent manner
Survival (%) ± SEM WT astrocytes ([5]; 0.1 μM): 98 ± 1.8%
Survival (%) ± SEM WT astrocytes ([5]; 1 μM): 86 ± 1.1%
Survival (%) ± SEM WT astrocytes ([5]; 10 μM): 79 ± 2.2%
TMRE staining (mitochondrial membrane potential) [6]: negative effect on TMRE staining
basal respiration and ATP-linked respiration per cell (OCR) [7]: negative effect
Survival (%) ± SEM Mut MEFs ([8]; 0.1 μM): 99 ± 2.1%
Survival (%) ± SEM Mut MEFs ([8]; 1 μM): 98 ± 2.2%
Survival (%) ± SEM Mut MEFs ([8]; 10 μM): 88 ± 3.5%

C=CCn1c(-c2cc(OC)c(OC)c(OC)c2)nc2ccccc21 [Hit H5, 1-allyl-2-(3,4,5-trimethoxyphenyl)-1H-benzimidazole]
Firefly/Renilla luciferase expression (Hedgehog activation) [1]: not able to activate the pathway
SAG-induced HH activity (Firefly/Renilla luciferase) ([1]; presence of SAG at 50 nM, 24 hours (FIG. 11B)): inhibited the SAG-induced HH activity

Cc1cc(-c2ccccc2)nc2cc(C(=O)N3C(C)CCCC3C)nn12 (centres unmarked) [Hit H17, 2-[(2,6-dimethyl-1-piperidinyl)carbonyl]-7-methyl-5-phenylpyrazolo[1,5-a]pyrimidine]
effect on mitochondrial health (JC1, intact and damaged mitochondria) [2]: significant beneficial effect on mitochondrial health

Cc1cc(C)cc(OCCCCCN2CCOCC2)c1 [Hit H8-1, 4-[5-(3,5-dimethylphenoxy)pentyl]morpholine]
Survival (%) ± SEM Mut MEFs ([8]; 10 μM): 104 ± 2.7%
Survival (%) ± SEM Mut MEFs ([8]; 20 μM): 103 ± 4.7%
Survival (%) ± SEM Mut MEFs ([8]; 30 μM): 97 ± 3.9%

Cc1cccc(OCCCCN2CCOCC2)c1 [Hit H8-4, 4-[4-(3-methylphenoxy)butyl]morpholine]
Survival (%) ± SEM Mut MEFs ([8]; 10 μM): 92 ± 8.5%
Survival (%) ± SEM Mut MEFs ([8]; 20 μM): 95 ± 4.2%
Survival (%) ± SEM Mut MEFs ([8]; 30 μM): 98 ± 5.4%

Cc1cccc(OCCCCCCN2CCOCC2)c1 [Hit H8-3, 4-[6-(3-methylphenoxy)hexyl]morpholine]
Survival (%) ± SEM Mut MEFs ([8]; 10 μM): 100 ± 7.2%
Survival (%) ± SEM Mut MEFs ([8]; 20 μM): 96 ± 4.1%
Survival (%) ± SEM Mut MEFs ([8]; 30 μM): 88 ± 4.5%
